Source: US10106556B2, “Heterocyclic compound” (TAKEDA PHARMACEUTICAL COMPANY LIMITED, priority 2015, dated 2018)

target: T1, His-hMAGL (recombinant polyhistidine tagged human MAGL protein) (Homo sapiens, UniProt Q99685); test: Measurement of MAGL inhibitory activity (arachidonic acid production from 2-arachidonylglycerol, RapidFire-mass spectrometry); type: biochemical; details: MAGL inhibitory rate at 10 μM test compound; 60 min preincubation with His-hMAGL, 2-arachidonylglycerol substrate, 10 min reaction at room temperature
T1 construct: made in house; host or cells: E. coli BL21(DE3)
T1 sequence (Q99685 1-303): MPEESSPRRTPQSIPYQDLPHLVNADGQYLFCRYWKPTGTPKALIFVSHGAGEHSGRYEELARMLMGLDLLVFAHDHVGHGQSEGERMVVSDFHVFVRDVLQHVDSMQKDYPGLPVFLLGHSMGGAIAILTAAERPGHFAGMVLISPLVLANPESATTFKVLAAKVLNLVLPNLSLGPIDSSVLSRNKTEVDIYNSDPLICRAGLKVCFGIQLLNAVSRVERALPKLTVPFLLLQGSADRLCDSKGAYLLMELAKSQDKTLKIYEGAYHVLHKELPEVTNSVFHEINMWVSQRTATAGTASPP
Method in brief: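 Inhibition (%) was derived from arachidonic acid levels relative to enzyme-free and compound-free groups. Product was measured by online C4 solid-phase extraction and triple-quadrupole MS in negative SRM mode, corrected by arachidonic acid-d8 (3 μM in the acetonitrile added). Substrate was 2-arachidonylglycerol; enzyme was His-tagged recombinant human MAGL.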

**Q.** Which inhibition at 10 µM does the source give for `O=C1COc2cc(F)c(C(=O)N3CC(COc4cccc5[nH]ncc45)C3)cc2N1` [Example 107, 7-fluoro-6-((3-((1H-indazol-4-yloxy)methyl)azetidin-1-yl)carbonyl)-2H-1,4-benzoxazin-3(4H)-one] here?
**A.** 101%

**Q.** How did the inhibition at 10 µM turn out when `O=C1COc2cc(F)c(C(=O)N3CC(COc4ccc(-c5ccccc5)cc4)C3)cc2N1` [Example 108, 6-((3-((biphenyl-4-yloxy)methyl)azetidin-1-yl)carbonyl)-7-fluoro-2H-1,4-benzoxazin-3(4H)-one] was run?
**A.** 99%

**Q.** How did the inhibition at 10 µM turn out when `O=C1COc2cc(F)c(C(=O)N3CC(COc4ccccc4-c4ccccc4)C3)cc2N1` [Example 109, 6-((3-((biphenyl-2-yloxy)methyl)azetidin-1-yl)carbonyl)-7-fluoro-2H-1,4-benzoxazin-3(4H)-one] was run?
**A.** 103%

**Q.** `O=C1COc2cc(F)c(C(=O)N3CC(COc4cccc(-c5ccccc5)c4)C3)cc2N1` [Example 110, 6-((3-((biphenyl-3-yloxy)methyl)azetidin-1-yl)carbonyl)-7-fluoro-2H-1,4-benzoxazin-3(4H)-one] was tested. Which inhibition at 10 µM did it give?
**A.** 97%

**Q.** How did the inhibition at 10 µM turn out when `O=C1COc2cc(F)c(C(=O)N3CC(COc4ccc(Cl)cc4)C3)cc2N1` [Example 111, 6-((3-((4-chlorophenoxy)methyl)azetidin-1-yl)carbonyl)-7-fluoro-2H-1,4-benzoxazin-3(4H)-one] was run?
**A.** 98%

**Q.** Which inhibition at 10 µM does the source give for `O=C1COc2cc(F)c(C(=O)N3CC(COc4cccc(Cl)c4)C3)cc2N1` [Example 112, 6-((3-((3-chlorophenoxy)methyl)azetidin-1-yl)carbonyl)-7-fluoro-2H-1,4-benzoxazin-3(4H)-one] here?
**A.** 101%

**Q.** `O=C1COc2cc(F)c(C(=O)N3CC(COc4ccccc4Cl)C3)cc2N1` [Example 113, 6-((3-((2-chlorophenoxy)methyl)azetidin-1-yl)carbonyl)-7-fluoro-2H-1,4-benzoxazin-3(4H)-one] was tested. Which inhibition at 10 µM did it give?
**A.** 101%

**Q.** How did the inhibition at 10 µM turn out when `O=C1COc2cc(F)c(C(=O)N3CC(COc4ccc(OCC(F)(F)F)cc4)C3)cc2N1` [Example 114, 7-fluoro-6-((3-((4-(2,2,2-trifluoroethoxy)phenoxy)methyl)azetidin-1-yl)carbonyl)-2H-1,4-benzoxazin-3(4H)-one] was run?
**A.** 99%

**Q.** With `COc1cc(Cl)ccc1OCC1CN(C(=O)c2cc3c(cc2F)OCC(=O)N3)C1` [Example 115, 6-((3-((4-chloro-2-methoxyphenoxy)methyl)azetidin-1-yl)carbonyl)-7-fluoro-2H-1,4-benzoxazin-3(4H)-one] as the compound, how does the inhibition at 10 µM read?
**A.** 103%

**Q.** With `O=C1COc2cc(F)c(C(=O)N3CC(COc4ccc(C(F)(F)F)cc4Cl)C3)cc2N1` [Example 116, 6-((3-((2-chloro-4-(trifluoromethyl)phenoxy)methyl)azetidin-1-yl)carbonyl)-7-fluoro-2H-1,4-benzoxazin-3(4H)-one] as the compound, how does the inhibition at 10 µM read?
**A.** 103%

**Q.** `Cc1ccc(OCC2CN(C(=O)c3cc4c(cc3F)OCC(=O)N4)C2)c(Cl)c1` [Example 117, 6-((3-((2-chloro-4-methylphenoxy)methyl)azetidin-1-yl)carbonyl)-7-fluoro-2H-1,4-benzoxazin-3(4H)-one] was tested. Which inhibition at 10 µM did it give?
**A.** 102%

**Q.** Which inhibition at 10 µM does the source give for `CC(C)(C)c1ccc(OCC2CN(C(=O)c3cc4c(cc3F)OCC(=O)N4)C2)c(Cl)c1` [Example 118, 6-((3-((4-tert-butyl-2-chlorophenoxy)methyl)azetidin-1-yl)carbonyl)-7-fluoro-2H-1,4-benzoxazin-3(4H)-one] here?
**A.** 99%

**Q.** Which inhibition at 10 µM does the source give for `N#Cc1cc(Cl)ccc1OCC1CN(C(=O)c2cc3c(cc2F)OCC(=O)N3)C1` [Example 119, 5-chloro-2-((1-((7-fluoro-3-oxo-3,4-dihydro-2H-1,4-benzoxazin-6-yl)carbonyl)azetidin-3-yl)methoxy)benzonitrile] here?
**A.** 102%

**Q.** For `Cc1cc(F)ccc1OCC1CN(C(=O)c2cc3c(cc2F)OCC(=O)N3)C1` [Example 120, 7-fluoro-6-((3-((4-fluoro-2-methylphenoxy)methyl)azetidin-1-yl)carbonyl)-2H-1,4-benzoxazin-3(4H)-one], which inhibition at 10 µM is on record?
**A.** 101%

**Q.** Which inhibition at 10 µM does the source give for `COc1cc(F)ccc1OCC1CN(C(=O)c2cc3c(cc2F)OCC(=O)N3)C1` [Example 121, 7-fluoro-6-((3-((4-fluoro-2-methoxyphenoxy)methyl)azetidin-1-yl)carbonyl)-2H-1,4-benzoxazin-3(4H)-one] here?
**A.** 99%

**Q.** How did the inhibition at 10 µM turn out when `O=C1COc2cc(F)c(C(=O)N3CC(COc4c(Cl)cccc4Cl)C3)cc2N1` [Example 122, 6-((3-((2,6-dichlorophenoxy)methyl)azetidin-1-yl)carbonyl)-7-fluoro-2H-1,4-benzoxazin-3(4H)-one] was run?
**A.** 102%

**Q.** With `O=C1COc2cc(F)c(C(=O)N3CC(COc4cccc(Cl)c4Cl)C3)cc2N1` [Example 123, 6-((3-((2,3-dichlorophenoxy)methyl)azetidin-1-yl)carbonyl)-7-fluoro-2H-1,4-benzoxazin-3(4H)-one] as the compound, how does the inhibition at 10 µM read?
**A.** 102%

**Q.** How did the inhibition at 10 µM turn out when `O=C1COc2cc(F)c(C(=O)N3CC(COc4ccc(Cl)c(Cl)c4)C3)cc2N1` [Example 124, 6-((3-((3,4-dichlorophenoxy)methyl)azetidin-1-yl)carbonyl)-7-fluoro-2H-1,4-benzoxazin-3(4H)-one] was run?
**A.** 100%

**Q.** For `O=C1COc2cc(F)c(C(=O)N3CC(COc4cc(Cl)ccc4Cl)C3)cc2N1` [Example 125, 6-((3-((2,5-dichlorophenoxy)methyl)azetidin-1-yl)carbonyl)-7-fluoro-2H-1,4-benzoxazin-3(4H)-one], which inhibition at 10 µM is on record?
**A.** 98%

**Q.** `O=C1COc2cc(F)c(C(=O)N3CC(COc4ccc(Cl)cc4F)C3)cc2N1` [Example 126, 6-((3-((4-chloro-2-fluorophenoxy)methyl)azetidin-1-yl)carbonyl)-7-fluoro-2H-1,4-benzoxazin-3(4H)-one] was tested. Which inhibition at 10 µM did it give?
**A.** 102%

**Q.** With `O=C1COc2cc(F)c(C(=O)N3CC(COc4cc(Cl)cc(Cl)c4)C3)cc2N1` [Example 127, 6-((3-((3,5-dichlorophenoxy)methyl)azetidin-1-yl)carbonyl)-7-fluoro-2H-1,4-benzoxazin-3(4H)-one] as the compound, how does the inhibition at 10 µM read?
**A.** 99%

**Q.** With `O=C1COc2cc(F)c(C(=O)N3CC(COc4ccc(Oc5ccccc5)cc4)C3)cc2N1` [Example 128, 7-fluoro-6-((3-((4-phenoxyphenoxy)methyl)azetidin-1-yl)carbonyl)-2H-1,4-benzoxazin-3(4H)-one] as the compound, how does the inhibition at 10 µM read?
**A.** 93%

**Q.** `O=C1COc2cc(F)c(C(=O)N3CC(COc4cccc(Oc5ccccc5)c4)C3)cc2N1` [Example 129, 7-fluoro-6-((3-((3-phenoxyphenoxy)methyl)azetidin-1-yl)carbonyl)-2H-1,4-benzoxazin-3(4H)-one] was tested. Which inhibition at 10 µM did it give?
**A.** 99%

**Q.** How did the inhibition at 10 µM turn out when `O=C1COc2cc(F)c(C(=O)N3CC(COc4ccc(Cl)c(F)c4)C3)cc2N1` [Example 130, 6-((3-((4-chloro-3-fluorophenoxy)methyl)azetidin-1-yl)carbonyl)-7-fluoro-2H-1,4-benzoxazin-3(4H)-one] was run?
**A.** 103%

**Q.** With `O=C1COc2cc(F)c(C(=O)N3CC(COc4ccc(F)c(Cl)c4)C3)cc2N1` [Example 131, 6-((3-((3-chloro-4-fluorophenoxy)methyl)azetidin-1-yl)carbonyl)-7-fluoro-2H-1,4-benzoxazin-3(4H)-one] as the compound, how does the inhibition at 10 µM read?
**A.** 101%

**Q.** For `O=C1COc2cc(F)c(C(=O)N3CC(COc4cc(F)ccc4Cl)C3)cc2N1` [Example 132, 6-((3-((2-chloro-5-fluorophenoxy)methyl)azetidin-1-yl)carbonyl)-7-fluoro-2H-1,4-benzoxazin-3(4H)-one], which inhibition at 10 µM is on record?
**A.** 99%
